Source: ChEMBL document CHEMBL5608241, “Discovery of Novel Non-nucleoside DOT1LR231Q Inhibitors with Improved Pharmacokinetic Properties and Anti-lung Cancer Efficacy” (J Med Chem, 2024)

What follows are compounds tested on NCI-H460 (assay: Antiproliferative activity against human NCI-H460 cells harboring DOT1L R231Q mutant (unknown origin) (1 to 416 residues) assessed as inhibition of cell proliferation incubated for 72 hrs by CCK-8 assay). Conditions: NCI-H460, 72 h.
Type: functional, cell-based

Structure (SMILES)	IC50 [µM]
CC(C)(C)C(=O)Nc1ccc2[nH]c(CN3CCC(N(CCCN4CCOCC4)CC4CCCN(c5ncnc6[nH]cnc56)C4)CC3)nc2c1 (configuration not stated)	73.8
CN(CCCNC(=O)Nc1ccc(C(C)(C)C)cc1)CC1CCCN(c2cc(C#N)ccn2)C1 (configuration not stated)	91.2
CC(C)N(CCCNC(=O)Nc1ccc(C(C)(C)C)cc1)CC1(O)CCN(c2nc(Cl)nc3[nH]ncc23)C1 (configuration not stated)	14.5
CC(C)(C)c1ccc(NC(=O)NCCCN(CCC(=O)N2CCOCC2)CC2(O)CCN(c3ncnc4[nH]cnc34)C2)cc1 (configuration not stated)	95.5
CC(C)(C)C(=O)Nc1ccc2[nH]c(CN3CCC(N(CCCN4CCOCC4)CC4CCCN(c5cc(C#N)ccn5)C4)CC3)nc2c1 (configuration not stated)	85.5
CC(C)(C)c1ccc(NC(=O)NCCCN(CCO)CC2(O)CCN(c3ncnc4[nH]cc(Br)c34)C2)cc1 (configuration not stated)	47.1
CN(CCCNC(=O)Nc1ccc(C(C)(C)C)cc1)CC1CCCN(C(=O)c2ccc[nH]c2=O)C1 (configuration not stated)	83.2
CC(C)(C)c1ccc(NC(=O)NCCCN(CCC(=O)N2CCOCC2)CC2(O)CCN(c3nc(Cl)nc4[nH]cnc34)C2)cc1 (configuration not stated)	38.4
CC(C)(C)C(=O)Nc1ccc2[nH]c(CN3CCC(N(CCCN4CCOCC4)CC4CCCN(c5nc(Cl)nc6[nH]cnc56)C4)CC3)nc2c1 (configuration not stated)	48.1
CN(CCCNC(=O)Nc1ccc(C(C)(C)C)cc1)CC1CCCN(c2nc(Cl)nc3[nH]cnc23)C1 (configuration not stated)	37.7
CC(C)N(CCCNC(=O)Nc1ccc(C(C)(C)C)cc1)CC1(O)CCN(c2nc(Cl)nc3sccc23)C1 (configuration not stated)	16
CC(C)N(CCCNC(=O)Nc1ccc(C(C)(C)C)cc1)CC1CCCN(c2nc(Cl)nc3[nH]cnc23)C1 (configuration not stated)	38.7
CC(C)(C)C(=O)Nc1ccc2[nH]c(CN3CCC(N(CCCN4CCOCC4)CC4CCCN(c5nc(Cl)nc6[nH]ncc56)C4)CC3)nc2c1 (configuration not stated)	52
CC(C)(C)c1ccc(NC(=O)NCCCN(CCC(=O)N2CCSCC2)CC2(O)CCN(c3nc(Cl)nc4[nH]cnc34)C2)cc1 (configuration not stated)	23.2
CC(C)(C)c1ccc(NC(=O)NCCCN(CCCN2CCOCC2)CC2(O)CCN(c3nc(N)nc4[nH]cnc34)C2)cc1 (configuration not stated)	29.6
CC(C)(C)C(=O)Nc1ccc2[nH]c(CN3CCC(N(CCCN4CCOCC4)CC4CCCN(C(=O)c5cnccn5)C4)CC3)nc2c1 (configuration not stated)	> 100
CN(CCCNC(=O)Nc1ccc(C(C)(C)C)cc1)CC1(O)CCN(c2nc(Cl)nc3[nH]cnc23)C1 (configuration not stated)	17.6
CC(C)N(CCCNC(=O)Nc1ccc(C(C)(C)C)cc1)CC1CCCN(C(=O)c2ccc[nH]c2=O)C1 (configuration not stated)	81.2
CC(C)N(CCCNC(=O)Nc1ccc(C(C)(C)C)cc1)C[C@H]1O[C@@H](n2cc(Br)c3c(N)ncnc32)[C@H](O)[C@@H]1O	36
CN(CCCNC(=O)Nc1ccc(C(C)(C)C)cc1)CC1(O)CCN(c2nc(Cl)nc3[nH]ncc23)C1 (configuration not stated)	21.8
CC(C)(C)c1ccc(NC(=O)NCCCN(CCCN2CCOCC2)CC2(O)CCN(c3ncnc4[nH]cnc34)C2)cc1 (configuration not stated)	73.1

These compounds were tested on NCI-H460 (assay: Antiproliferative activity against human NCI-H460 cells harboring wildtype DOT1L (unknown origin) (1 to 416 residues) assessed as inhibition of cell proliferation incubated for 72 hrs by CCK-8 assay). Conditions: NCI-H460, 72 h.
Type: functional, cell-based

Structure (SMILES)	IC50 [µM]
CC(C)(C)C(=O)Nc1ccc2[nH]c(CN3CCC(N(CCCN4CCOCC4)CC4CCCN(c5ncnc6[nH]cnc56)C4)CC3)nc2c1 (configuration not stated)	> 100
CN(CCCNC(=O)Nc1ccc(C(C)(C)C)cc1)CC1CCCN(c2cc(C#N)ccn2)C1 (configuration not stated)	> 100
CC(C)N(CCCNC(=O)Nc1ccc(C(C)(C)C)cc1)CC1(O)CCN(c2nc(Cl)nc3[nH]ncc23)C1 (configuration not stated)	6.47
CC(C)(C)c1ccc(NC(=O)NCCCN(CCC(=O)N2CCOCC2)CC2(O)CCN(c3ncnc4[nH]cnc34)C2)cc1 (configuration not stated)	> 100
CC(C)(C)C(=O)Nc1ccc2[nH]c(CN3CCC(N(CCCN4CCOCC4)CC4CCCN(c5cc(C#N)ccn5)C4)CC3)nc2c1 (configuration not stated)	> 100
CC(C)(C)c1ccc(NC(=O)NCCCN(CCO)CC2(O)CCN(c3ncnc4[nH]cc(Br)c34)C2)cc1 (configuration not stated)	41.3
CN(CCCNC(=O)Nc1ccc(C(C)(C)C)cc1)CC1CCCN(C(=O)c2ccc[nH]c2=O)C1 (configuration not stated)	66.3
CC(C)(C)c1ccc(NC(=O)NCCCN(CCC(=O)N2CCOCC2)CC2(O)CCN(c3nc(Cl)nc4[nH]cnc34)C2)cc1 (configuration not stated)	53.9
CC(C)(C)C(=O)Nc1ccc2[nH]c(CN3CCC(N(CCCN4CCOCC4)CC4CCCN(c5nc(Cl)nc6[nH]cnc56)C4)CC3)nc2c1 (configuration not stated)	> 100
CN(CCCNC(=O)Nc1ccc(C(C)(C)C)cc1)CC1CCCN(c2nc(Cl)nc3[nH]cnc23)C1 (configuration not stated)	23.3
CC(C)N(CCCNC(=O)Nc1ccc(C(C)(C)C)cc1)CC1(O)CCN(c2nc(Cl)nc3sccc23)C1 (configuration not stated)	7.56
CC(C)N(CCCNC(=O)Nc1ccc(C(C)(C)C)cc1)CC1CCCN(c2nc(Cl)nc3[nH]cnc23)C1 (configuration not stated)	21.8
CC(C)(C)C(=O)Nc1ccc2[nH]c(CN3CCC(N(CCCN4CCOCC4)CC4CCCN(c5nc(Cl)nc6[nH]ncc56)C4)CC3)nc2c1 (configuration not stated)	> 100
CC(C)(C)c1ccc(NC(=O)NCCCN(CCC(=O)N2CCSCC2)CC2(O)CCN(c3nc(Cl)nc4[nH]cnc34)C2)cc1 (configuration not stated)	64.5
CC(C)(C)c1ccc(NC(=O)NCCCN(CCCN2CCOCC2)CC2(O)CCN(c3nc(N)nc4[nH]cnc34)C2)cc1 (configuration not stated)	> 100
CC(C)(C)C(=O)Nc1ccc2[nH]c(CN3CCC(N(CCCN4CCOCC4)CC4CCCN(C(=O)c5cnccn5)C4)CC3)nc2c1 (configuration not stated)	> 100
CN(CCCNC(=O)Nc1ccc(C(C)(C)C)cc1)CC1(O)CCN(c2nc(Cl)nc3[nH]cnc23)C1 (configuration not stated)	6.46
CC(C)N(CCCNC(=O)Nc1ccc(C(C)(C)C)cc1)CC1CCCN(C(=O)c2ccc[nH]c2=O)C1 (configuration not stated)	75.7
CC(C)N(CCCNC(=O)Nc1ccc(C(C)(C)C)cc1)C[C@H]1O[C@@H](n2cc(Br)c3c(N)ncnc32)[C@H](O)[C@@H]1O	8.83
CN(CCCNC(=O)Nc1ccc(C(C)(C)C)cc1)CC1(O)CCN(c2nc(Cl)nc3[nH]ncc23)C1 (configuration not stated)	8.51
CC(C)(C)c1ccc(NC(=O)NCCCN(CCCN2CCOCC2)CC2(O)CCN(c3ncnc4[nH]cnc34)C2)cc1 (configuration not stated)	> 100
